Source: PMC3485312, “A Phage Display Selected 7-mer Peptide Inhibitor of the Tannerella forsythia Metalloprotease-Like Enzyme Karilysin can be Truncated to Ser-Trp-Phe-Pro” (PLoS ONE, 2012)
Residues, ends and D or L forms follow the SMILES beside them.

Experiments:
[1] = target: T1, Kly18 (Karilysin catalytic domain) (Tannerella forsythia, UniProt D0EM77); details: cited from earlier work
T1 construct: Karilysin catalytic domain (Kly18) and intact Kly48 were produced as previously described; made in house
T1 sequence (D0EM77 35-195): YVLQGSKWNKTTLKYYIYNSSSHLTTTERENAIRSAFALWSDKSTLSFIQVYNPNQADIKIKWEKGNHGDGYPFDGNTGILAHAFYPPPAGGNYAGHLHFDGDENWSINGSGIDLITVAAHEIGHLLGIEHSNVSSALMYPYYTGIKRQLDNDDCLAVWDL
From the text: The development of MMP inhibitors is highly relevant, due to the involvement of MMPs in several pathologies. Some candidate molecules act by blocking the MMP-active sites via binding to the catalytic Zn^2+ through chelators such as hydroxamate. These approaches have been successful for MMP inhibition. However, the inhibitors have a broad specificity towards other MMPs due to very similar active site geometries of matrix metalloproteinases. An alternative approach to specific MMP inhibitor design is to utilize larger molecules, such as peptides, that interact with the activ ...

[2] = target: T1, Kly18 (Karilysin catalytic domain); assay: biochemical; details: for Kly18 inhibitory activity, single concentration screen: 87 µM peptide
Experimental: (§1) Kly18 and Kly48 protease activities were monitored essentially as described. One hundred µl working volumes were used in black untreated polypropylene microtitre plates and FITC-casein was used as the substrate. Assays were performed at 37°C using 500 nM of Kly18 (or Kly48) in assay buffer (100 mM Tris-HCl, 5mM CaCl2, pH 8.0), at a FITC-casein concentration of 25 µg/ml. […] Peptides were dissolved in Milli Q water and added in varying molarities. The assay setup was as follows; Kly18 (or Kly48) was diluted in assay buffer together with peptide, followed by 30 minutes incubation on a vertical shaker at 22°C. Then FITC-casein was added and fluorescence formation was monitored at 37°C for 90 minutes with measurements every ten minutes.

intact Karilysin (Kly48) = target: T2, intact Karilysin (Kly48) (Tannerella forsythia, UniProt D0EM77); assay: Kly48 protease activity assay with FITC-casein substrate; assay type: biochemical; details: 500 nM Kly48, FITC-casein, peptide 2.3 µM to 55.6 µM; three experiments
T2 construct: made in house
T2 sequence (D0EM77 35-472): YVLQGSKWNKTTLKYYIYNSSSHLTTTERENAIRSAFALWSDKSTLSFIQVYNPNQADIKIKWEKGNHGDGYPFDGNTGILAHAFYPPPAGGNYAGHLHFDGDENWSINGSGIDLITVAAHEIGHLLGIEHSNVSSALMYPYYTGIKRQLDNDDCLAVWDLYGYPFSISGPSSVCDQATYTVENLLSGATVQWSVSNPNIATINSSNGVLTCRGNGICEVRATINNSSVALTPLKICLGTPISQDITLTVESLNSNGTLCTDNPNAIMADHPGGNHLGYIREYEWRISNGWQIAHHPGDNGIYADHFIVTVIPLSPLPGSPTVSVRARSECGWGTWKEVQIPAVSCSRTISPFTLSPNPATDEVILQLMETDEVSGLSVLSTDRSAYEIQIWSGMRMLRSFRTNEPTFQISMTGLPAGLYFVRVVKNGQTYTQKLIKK
Experimental: as §1

Karilysin (Kly48) = target: T3, Karilysin (Kly48) (Tannerella forsythia, UniProt D0EM77); assay: Auto-processing of Kly48 monitored by SDS-PAGE; assay type: biochemical; details: Kly48 13 µM, peptide 455 µM, 37°C, 50 mM Tris-HCl, 2.5 mM CaCl2, pH 8.0, up to 48 hours
T3 construct: made in house
T3 sequence (D0EM77 35-472): as above
Experimental: Karilysin (Kly48) at 13 µM was incubated at 37°C in 50 mM Tris-HCl, 2.5 mM CaCl2, 0.02% NaN3 pH 8.0 alone or in the presence of the peptide SWFPL at 455 µM. At different time points samples were withdrawn and the Kly48 autocatalytic processing was monitored by SDS-PAGE using 10% gels and the Tris-HCl/Tricine buffer system. Gels were stained with 0.1% Coomassie Brilliant Blue R-250 in 10% acetic acid followed by destaining. Samples were run alongside a Low Molecular Weight SDS-PAGE Marker.

c1cnc2c(c1)ccc1cccnc12 [1,10-phenanthroline]
Inhibition of Kly18 by small molecule chelators [1]: inhibited

NC(=O)[C@@H]1CCCN1C(=O)[C@H](Cc1ccccc1)NC(=O)[C@H](Cc1c[nH]c2ccccc12)NC(=O)[C@@H](N)CO [15-7, (NH2)-SWFP-(CONH2)] (H-SWFP-NH2)
Ki [2]: 10.7 ± 2.25 µM
Kly18 inhibitory activity, single concentration screen ([2]; FITC-casein substrate): retained efficient inhibitory potency

O=C(O)CN(CCN(CC(=O)O)CC(=O)O)CC(=O)O [EDTA]
Inhibition of Kly18 by small molecule chelators [1]: inhibited

(NH2)-WFP-(CONH2) [15-8]
Kly18 inhibitory activity, single concentration screen ([2]; FITC-casein substrate): lost most or all of their Kly18 inhibition capacity
Kly18 inhibitory activity, single concentration screen ([2]; FITC-casein substrate, listed as (NH2)-WFP-(CONH2)): completely inactive

(NH2)-WFPL-(CONH2) [15-15]
Kly18 inhibitory activity, single concentration screen ([2]; FITC-casein substrate): lost most or all of their Kly18 inhibition capacity

(NH2)-WFPLR-(CONH2) [15-14]
Kly18 inhibitory activity, single concentration screen ([2]; FITC-casein substrate): lost most or all of their Kly18 inhibition capacity

H-SAAALRSGGGS-NH2 [control peptide, control peptide with the WFP motif replaced by a triple alanine, reference compound]
Kly18 inhibition at very high dose ([2]; 174 µM peptide, FITC-casein substrate, two experiments): curve similar to that of Kly18 with no peptide present

H-SWAPLRSGGGS-NH2 [15-16]
Kly18 inhibitory activity, single concentration screen ([2]; FITC-casein substrate): inactive

H-SWFPL-NH2 [15-6, (NH2)-SWFPL-(CONH2)]
Inhibition of Kly48 proteolytic activity (dose-response) (intact Karilysin (Kly48)): clear dose-response inhibition
Effect on Kly48 auto-processing to Kly38 and Kly18 (Karilysin (Kly48)): inhibited the auto-processesing efficiently
Ki [2]: 8.36 ± 2.34 µM

H-SWFPLR-NH2 [15-5, (NH2)-SWFPLR-(CONH2)]
Ki [2]: 6.52 ± 0.88 µM

H-SWFPLRSGGGS-NH2 [15-0]
Ki [2]: 5.34 ± 0.51 µM

H-WFPLRS-NH2 [15-13]
Kly18 inhibitory activity, single concentration screen ([2]; FITC-casein substrate): lost most or all of their Kly18 inhibition capacity

H-WFPLRSG-NH2 [15-12]
Kly18 inhibitory activity, single concentration screen ([2]; FITC-casein substrate): lost most or all of their Kly18 inhibition capacity

H-WFPLRSGG-NH2 [15-11]
Kly18 inhibitory activity, single concentration screen ([2]; FITC-casein substrate): lost most or all of their Kly18 inhibition capacity

H-WFPLRSGGG-NH2 [15-10]
Kly18 inhibitory activity, single concentration screen ([2]; FITC-casein substrate): lost most or all of their Kly18 inhibition capacity
